± gives the standard deviation of the averaged measurements.
Columns and labels:
Details in all cases: 72 h
BV-173 [1] = system: BV-173
Method in brief: (§1)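 Seeded in RPMI 1640 at densities within the linear growth range, fifteen myeloid leukaemia cell lines were dispensed into 384-well plates with acoustically pre-printed compounds spanning five tenfold doses from 1 to 10,000 nM, in duplicate. The plates were kept for 72 h at 37 °C in 5% CO2 before luminescent ATP viability was measured and normalised to vehicle and to a positive control at 10 µM. Curves were fitted with a four-parameter log-logistic model. The IC50 was taken from those curves.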

HEL = system: HEL
Method in brief: as §1

HL-60 [2] = system: HL-60
Method in brief: as §1

K-562 [3] = system: K-562
Method in brief: as §1

KCL-22 [4] = system: KCL-22
Method in brief: as §1

KG-1 [5] = system: KG-1
Method in brief: as §1

KU-812 [6] = system: KU-812
Method in brief: as §1

LAMA-84 [7] = system: LAMA-84
Method in brief: as §1

ML-2 [8] = system: ML-2
Method in brief: as §1

MOLM-13 [9] = system: MOLM-13
Method in brief: as §1

MV4-11 [10] = system: MV4-11
Method in brief: as §1

Mono-Mac-6 = system: Mono-Mac-6
Method in brief: as §1

NOMO-1 [11] = system: NOMO-1
Method in brief: as §1

SHI-1 = system: SHI-1
Method in brief: as §1

THP-1 [12] = system: THP-1
Method in brief: as §1

HL-60 [13] = assay: cell viability (% survival relative to DMSO control); higher = less cytotoxic
Method in brief: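 In 384-well plates, the full library was rescreened in duplicate on HL-60 cells in RPMI 1640 with 10% FBS, at 1–10,000 nM in five tenfold concentrations, for 72 h at 37 °C, 5% CO2. Each run also held DMSO or 100 nM of one of three metabolic inhibitors. Viability was measured by CellTiter-Glo and normalised to DMSO wells and to wells with proteasome inhibitor, present at 10 μM. Any area under the curve comes from four-parameter log-logistic fitting with drc and PharmacoGx.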

BV-173 [14] = assay: cell viability (% survival relative to DMSO control, bortezomib = 0%); higher = less cytotoxic
Method in brief: (§2)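 Fifteen myeloid leukaemia cell lines (10 AML, 5 CML) were seeded at a density titrated to the linear growth range. They went into 384-well plates with compounds pre-printed at 1, 10, 100, 1000 or 10000 nM in duplicate. After 72 h at 37 °C with 5% CO2, viability was read by CellTiter-Glo luminescence. Values are percent survival, with vehicle set to 100% and a 10 µM positive control to 0%, averaged over the duplicates.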

HL-60 [15] = assay: as above
Method in brief: as §2

K-562 [16] = assay: as above
Method in brief: as §2

KCL-22 [17] = assay: as above
Method in brief: as §2

KG-1 [18] = assay: as above
Method in brief: as §2

KU-812 [19] = assay: as above
Method in brief: as §2

LAMA-84 [20] = assay: as above
Method in brief: as §2

ML-2 [21] = assay: as above
Method in brief: as §2

MOLM-13 [22] = assay: as above
Method in brief: as §2

MV4-11 [23] = assay: as above
Method in brief: as §2

NOMO-1 [24] = assay: as above
Method in brief: as §2

THP-1 [25] = assay: as above
Method in brief: as §2

CC(C)c1nc(CN(C)C(=O)N[C@H](C(=O)N[C@@H](Cc2ccccc2)C[C@H](O)[C@H](Cc2ccccc2)NC(=O)OCc2cncs2)C(C)C)cs1 [Ritonavir]
IC50 (cell viability) (BV-173 [1]): 6.62 µM | IC50 (cell viability) (HEL): > 10 µM | IC50 (cell viability) (HL-60 [2]): > 10 µM | IC50 (cell viability) (K-562 [3]): > 10 µM | IC50 (cell viability) (KCL-22 [4]): > 10 µM | IC50 (cell viability) (KG-1 [5]): > 10 µM | IC50 (cell viability) (KU-812 [6]): > 10 µM | IC50 (cell viability) (LAMA-84 [7]): > 10 µM | IC50 (cell viability) (ML-2 [8]): > 10 µM | IC50 (cell viability) (MOLM-13 [9]): > 10 µM | IC50 (cell viability) (MV4-11 [10]): > 10 µM | IC50 (cell viability) (Mono-Mac-6): > 10 µM | IC50 (cell viability) (NOMO-1 [11]): > 10 µM | IC50 (cell viability) (SHI-1): > 10 µM | IC50 (cell viability) (THP-1 [12]): > 10 µM | cell viability (HL-60 [13]; 0.001 µM, co-treatment: AZD3965 100 nM): 99.9 ± 2.7% | cell viability (HL-60 [13]; 0.001 µM, co-treatment: DMSO vehicle): 101 ± 2.2% | cell viability (HL-60 [13]; 0.001 µM, co-treatment: GSK2194069 100 nM): 94.5 ± 6.6% | cell viability (HL-60 [13]; 0.001 µM, co-treatment: pictilisib 100 nM): 105 ± 2% | cell viability (HL-60 [13]; 0.01 µM, co-treatment: AZD3965 100 nM): 102 ± 1.6% | cell viability (HL-60 [13]; 0.01 µM, co-treatment: DMSO vehicle): 103.3 ± 0.22% | cell viability (HL-60 [13]; 0.01 µM, co-treatment: GSK2194069 100 nM): 110 ± 17% | cell viability (HL-60 [13]; 0.01 µM, co-treatment: pictilisib 100 nM): 101 ± 2.1% | cell viability (HL-60 [13]; 0.1 µM, co-treatment: AZD3965 100 nM): 78.3 ± 26% | cell viability (HL-60 [13]; 0.1 µM, co-treatment: DMSO vehicle): 94.5 ± 3.8% | cell viability (HL-60 [13]; 0.1 µM, co-treatment: GSK2194069 100 nM): 88 ± 24% | cell viability (HL-60 [13]; 0.1 µM, co-treatment: pictilisib 100 nM): 97.5 ± 4.1% | cell viability (HL-60 [13]; 1 µM, co-treatment: AZD3965 100 nM): 102 ± 3.5% | cell viability (HL-60 [13]; 1 µM, co-treatment: DMSO vehicle): 87.4 ± 17% | cell viability (HL-60 [13]; 1 µM, co-treatment: GSK2194069 100 nM): 86.6 ± 30% | cell viability (HL-60 [13]; 1 µM, co-treatment: pictilisib 100 nM): 93.9 ± 7.7% | cell viability (HL-60 [13]; 10 µM, co-treatment: AZD3965 100 nM): 104 ± 3.9% | cell viability (HL-60 [13]; 10 µM, co-treatment: DMSO vehicle): 105.8 ± 0.3% | cell viability (HL-60 [13]; 10 µM, co-treatment: GSK2194069 100 nM): 67.1 ± 3.1% | cell viability (HL-60 [13]; 10 µM, co-treatment: pictilisib 100 nM): 99.2 ± 1.5% | cell viability (BV-173 [14]; 1 nM): 107% | cell viability (BV-173 [14]; 10 nM): 89.8% | cell viability (BV-173 [14]; 100 nM): 96% | cell viability (BV-173 [14]; 1000 nM): 85.7% | cell viability (BV-173 [14]; 10000 nM): 39.1% | cell viability (HL-60 [15]; 1 nM): 99% | cell viability (HL-60 [15]; 10 nM): 101% | cell viability (HL-60 [15]; 100 nM): 113% | cell viability (HL-60 [15]; 1000 nM): 103% | cell viability (HL-60 [15]; 10000 nM): 86.6% | cell viability (K-562 [16]; 1 nM): 112% | cell viability (K-562 [16]; 10 nM): 112% | cell viability (K-562 [16]; 100 nM): 89% | cell viability (K-562 [16]; 1000 nM): 108% | cell viability (K-562 [16]; 10000 nM): 75.5% | cell viability (KCL-22 [17]; 1 nM): 99.4% | cell viability (KCL-22 [17]; 10 nM): 102% | cell viability (KCL-22 [17]; 100 nM): 108% | cell viability (KCL-22 [17]; 1000 nM): 94.5% | cell viability (KCL-22 [17]; 10000 nM): 87.2% | cell viability (KG-1 [18]; 1 nM): 95.7% | cell viability (KG-1 [18]; 10 nM): 96.8% | cell viability (KG-1 [18]; 100 nM): 108% | cell viability (KG-1 [18]; 1000 nM): 101% | cell viability (KG-1 [18]; 10000 nM): 71.1% | cell viability (KU-812 [19]; 1 nM): 109% | cell viability (KU-812 [19]; 10 nM): 95.1% | cell viability (KU-812 [19]; 100 nM): 102% | cell viability (KU-812 [19]; 1000 nM): 95.9% | cell viability (KU-812 [19]; 10000 nM): 78.8% | cell viability (LAMA-84 [20]; 1 nM): 115% | cell viability (LAMA-84 [20]; 10 nM): 103% | cell viability (LAMA-84 [20]; 100 nM): 102% | cell viability (LAMA-84 [20]; 1000 nM): 100% | cell viability (LAMA-84 [20]; 10000 nM): 88.6% | cell viability (ML-2 [21]; 1 nM): 94.2% | cell viability (ML-2 [21]; 10 nM): 94.2% | cell viability (ML-2 [21]; 100 nM): 108% | cell viability (ML-2 [21]; 1000 nM): 83.5% | cell viability (ML-2 [21]; 10000 nM): 64.4% | cell viability (MOLM-13 [22]; 1 nM): 104% | cell viability (MOLM-13 [22]; 10 nM): 104% | cell viability (MOLM-13 [22]; 100 nM): 95.3% | cell viability (MOLM-13 [22]; 1000 nM): 96.2% | cell viability (MOLM-13 [22]; 10000 nM): 99.3% | cell viability (MV4-11 [23]; 1 nM): 120% | cell viability (MV4-11 [23]; 10 nM): 98.1% | cell viability (MV4-11 [23]; 100 nM): 95.9% | cell viability (MV4-11 [23]; 1000 nM): 87.2% | cell viability (MV4-11 [23]; 10000 nM): 71.9% | cell viability (NOMO-1 [24]; 1 nM): 108% | cell viability (NOMO-1 [24]; 10 nM): 88.5% | cell viability (NOMO-1 [24]; 100 nM): 103% | cell viability (NOMO-1 [24]; 1000 nM): 90.3% | cell viability (NOMO-1 [24]; 10000 nM): 81.3% | cell viability (THP-1 [25]; 1 nM): 97.1% | cell viability (THP-1 [25]; 10 nM): 91.7% | cell viability (THP-1 [25]; 100 nM): 107% | cell viability (THP-1 [25]; 1000 nM): 97.3% | cell viability (THP-1 [25]; 10000 nM): 88.2%

From the supplement of paper PMC8671470
